Converted amounts (≈) assume the structure as drawn. Where only a bound is given, the exact number is not on record here.

By GI50 is commonly meant the concentration that inhibits growth by half. The low end stands for more potent growth inhibition, the high end for less potent growth inhibition. In general, MIC refers to the smallest concentration in the dilution series that meets the test's criterion for growth inhibition.

Common to all, as to format: functional
The test system of one experiment is SiHa. Put plainly: Growth inhibition of human SiHa cells measured after 48 hrs by SRB assay. (In general: Sulforhodamine B stains cellular protein and so reports cell mass.)
Another experiment deals with MDA-MB-231. Description: Growth inhibition of human MDA-MB-231 cells measured after 48 hrs by SRB assay.
Experiment [1] has as its system Escherichia coli. Description: Potency index, ratio of ciprofloxacin MIC to test compound MIC for antimicrobial activity against Escherichia coli assessed as bacterial growth inhibition by agar cup diffusion assay.
In experiment [2] the test system is Escherichia coli. Put plainly: Antibacterial activity against Escherichia coli ATCC 8739 assessed as bacterial growth inhibition measured after 18 to 24 hrs by two fold microdilution assay. The note with it: time 18-24 hrs. Background: Broth dilution looks for growth in wells or tubes with falling amounts of substance.
The test system of experiment [3] is Klebsiella pneumoniae. Put plainly: Antibacterial activity against Klebsiella pneumoniae ATCC 13883 assessed as bacterial growth inhibition measured after 18 to 24 hrs by two fold microdilution assay. Particulars: time 18-24 hrs.
Experiment [4] concerns Staphylococcus aureus. Description: Antibacterial activity against Staphylococcus aureus ATCC 29213 assessed as bacterial growth inhibition by broth microdilution assay.
Experiment [5] concerns Escherichia coli. Put plainly: Antibacterial activity against Escherichia coli ATCC 25922 assessed as bacterial growth inhibition by agar dilution assay. For orientation: Agar dilution tests growth on a series of plates holding different concentrations.
Experiment [6] concerns Staphylococcus aureus. Description: Antibacterial activity against Staphylococcus aureus assessed as bacterial growth inhibition by agar dilution assay.
The test system of experiment [7] is Pseudomonas aeruginosa. Put plainly: Antibacterial activity against Pseudomonas aeruginosa ATCC 27853 assessed as bacterial growth inhibition by agar dilution assay.
For a further experiment, the system named is Acinetobacter baumannii. Description: Antibacterial activity against Acinetobacter baumannii assessed as bacterial growth inhibition by agar dilution assay.
The test system of experiment [8] is Staphylococcus aureus. Description: Antibacterial activity against methicillin resistant Staphylococcus aureus assessed as bacterial growth inhibition by agar dilution assay.
In experiment [9] the test system is Klebsiella pneumoniae. Put plainly: Antibacterial activity against Klebsiella pneumoniae assessed as bacterial growth inhibition by agar dilution assay.
For experiment [10], the system named is Staphylococcus aureus. Description: Antibacterial activity against Staphylococcus aureus ATCC 25923 assessed as bacterial growth inhibition by agar dilution assay.
Experiment [11] relates to Staphylococcus aureus. Put plainly: Antibacterial activity against Staphylococcus aureus ATCC 29213 assessed as bacterial growth inhibition by agar dilution assay.
Experiment [12] has as its system Staphylococcus aureus. Put plainly: Antibacterial activity against methicillin resistant Staphylococcus aureus ATCC 33591 assessed as bacterial growth inhibition measured after 16 to 18 hrs by serial dilution method. Particulars: time 16-18 hrs.
Experiment [13] has as its system Staphylococcus aureus. Put plainly: Antibacterial activity against Staphylococcus aureus Newman assessed as bacterial growth inhibition measured after 16 to 18 hrs by serial dilution method. The note with it: time 16-18 hrs.
For experiment [14], the system named is Staphylococcus aureus. Description: Antibacterial activity against clinical isolate linezolid/methicillin resistant Staphylococcus aureus NRS 271 assessed as bacterial growth inhibition measured after 16 to 18 hrs by serial dilution method. The note with it: time 16-18 hrs.
The subject of experiment [15] is Staphylococcus aureus. Description: Antibacterial activity against clinical isolate aminoglycosides/tetracycline/methicillin resistant Staphylococcus aureus NRS 1 assessed as bacterial growth inhibition measured after 16 to 18 hrs by serial dilution method. Particulars: time 16-18 hrs.
Experiment [16] concerns Staphylococcus aureus. Put plainly: Antibacterial activity against fluoroquinolone/methicillin resistant Staphylococcus aureus clinical isolate 19-27 assessed as bacterial growth inhibition measured after 16 to 18 hrs by serial dilution method. The note with it: time 16-18 hrs.
Experiment [17] has as its system Staphylococcus aureus. Put plainly: Antibacterial activity against clinical isolate erythromycin/methicillin resistant Staphylococcus aureus NRS 70 assessed as bacterial growth inhibition measured after 16 to 18 hrs by serial dilution method. Particulars: time 16-18 hrs.
Experiment [18] relates to Staphylococcus aureus. Put plainly: Antibacterial activity against fluoroquinolone/methicillin resistant Staphylococcus aureus clinical isolate 19-26 assessed as bacterial growth inhibition measured after 16 to 18 hrs by serial dilution method. Particulars: time 16-18 hrs.
Experiment [19] deals with Staphylococcus aureus. Description: Antibacterial activity against clinical isolate gentamycin/methicillin resistant Staphylococcus aureus NRS 108 assessed as bacterial growth inhibition measured after 16 to 18 hrs by serial dilution method. Particulars: time 16-18 hrs.
For experiment [20], the system named is Staphylococcus aureus. Put plainly: Antibacterial activity against clinical isolate oxacillin/tetracycline/methicillin resistant Staphylococcus aureus NRS 100 assessed as bacterial growth inhibition measured after 16 to 18 hrs by serial dilution method. The note with it: time 16-18 hrs.
Experiment [21] deals with Staphylococcus aureus. Put plainly: Antibacterial activity against vancomycin-intermediate methicillin resistant Staphylococcus aureus ATCC 700699 assessed as bacterial growth inhibition measured after 16 to 18 hrs by serial dilution method. Particulars: time 16-18 hrs.
Experiment [22] has as its system Staphylococcus aureus. Description: Antibacterial activity against methicillin resistant Staphylococcus aureus ATCC 43300 assessed as bacterial growth inhibition measured after 16 to 18 hrs by serial dilution method. Particulars: time 16-18 hrs.
For experiment [23], the system named is Staphylococcus aureus. Put plainly: Antibacterial activity against fluoroquinolone/methicillin resistant Staphylococcus aureus clinical isolate 19-25 assessed as bacterial growth inhibition measured after 16 to 18 hrs by serial dilution method. The note with it: time 16-18 hrs.
Experiment [24] concerns Staphylococcus aureus. Put plainly: Antibacterial activity against Staphylococcus aureus ATCC 25923 assessed as bacterial growth inhibition measured after 18 to 24 hrs by two fold microdilution assay. Particulars: time 18-24 hrs.
In experiment [25] the test system is Escherichia coli. Put plainly: Antibacterial activity against Escherichia coli ATCC 35218 assessed as bacterial growth inhibition measured after 18 to 24 hrs by two fold microdilution assay. The note with it: ATCC35218, time 18-24 hrs.
The test system of experiment [26] is Klebsiella pneumoniae. Description: Antibacterial activity against Klebsiella pneumoniae assessed as bacterial growth inhibition measured after 18 to 24 hrs by two fold microdilution assay. Particulars: time 18-24 hrs.
For experiment [27], the system named is Pseudomonas aeruginosa. Put plainly: Antibacterial activity against Pseudomonas aeruginosa assessed as bacterial growth inhibition measured after 20 hrs by serial dilution method.
Experiment [28] deals with Escherichia coli. Put plainly: Antibacterial activity against Escherichia coli assessed as bacterial growth inhibition measured after 20 hrs by serial dilution method.
Experiment [29] concerns Klebsiella pneumoniae. Put plainly: Antibacterial activity against Klebsiella pneumoniae assessed as bacterial growth inhibition measured after 20 hrs by serial dilution method.
Experiment [30] deals with Staphylococcus aureus. Put plainly: Antibacterial activity against Staphylococcus aureus assessed as bacterial growth inhibition measured after 20 hrs by serial dilution method.
Experiment [31] deals with Staphylococcus aureus. Description: Antibacterial activity against Staphylococcus aureus ATCC 6538p assessed as bacterial growth inhibition by agar dilution method.
For the next experiment, the system named is Bacillus subtilis. Put plainly: Antibacterial activity against Bacillus subtilis PTCC 1023 assessed as bacterial growth inhibition by agar dilution method.
A further experiment deals with Enterobacter cloacae. Description: Antibacterial activity against Enterobacter cloacae PTCC 1003 assessed as bacterial growth inhibition by agar dilution method.
Experiment [32] deals with Escherichia coli. Description: Antibacterial activity against Escherichia coli ATCC 8739 assessed as bacterial growth inhibition by agar dilution method.
Experiment [33] relates to Staphylococcus epidermidis. Put plainly: Antibacterial activity against Staphylococcus epidermidis ATCC 12228 assessed as bacterial growth inhibition by agar dilution method.
Experiment [34] concerns Klebsiella pneumoniae. Put plainly: Antibacterial activity against Klebsiella pneumoniae ATCC 10031 assessed as bacterial growth inhibition by agar dilution method.

As for `O=C(O)c1cn(C2CC2)c2cc(N3CCN(C(=O)CCSc4nnnn4Cc4ccccc4)CC3)c(F)cc2c1=O`, the GI50 is 70 nM in the experiment on SiHa and 80 nM in the experiment on MDA-MB-231. The Ratio in the experiment with Escherichia coli [1] is reported as 2.

For `O=C(O)c1cn(C2CC2)c2cc(N3CCN(Cn4nc(CN5CCN(c6ccccc6)CC5)n(-c5ccccc5)c4=S)CC3)c(F)cc2c1=O`, the MIC with Escherichia coli [2] and in the experiment with Klebsiella pneumoniae [3] was 0.125 µg/mL (≈ 0.18 µM) each time.

Regarding `CCn1c(CN2CCN(c3ccccc3)CC2)nn(CN2CCN(c3cc4c(cc3F)c(=O)c(C(=O)O)cn4C3CC3)CC2)c1=S`, the MIC in the experiment with Escherichia coli [2] and in the experiment with Klebsiella pneumoniae [3] was 0.125 µg/mL (≈ 0.193 µM) each time.

With `COc1ccc2nc(CN3CCN(c4cc5c(cc4F)c(=O)c(C(=O)O)cn5C4CC4)CC3)[nH]c(=O)c2c1`, the MIC in the experiment on Staphylococcus aureus [4] is 0.031 µg/mL (≈ 0.0597 µM).

Take `CCOC(=O)c1cn(Cc2nc3ccccc3n2Cc2ccc(Cl)cc2Cl)c2cc(Cl)c(F)cc2c1=O`: the MIC with Escherichia coli [5] worked out at 1 µg/mL (≈ 1.79 µM); in the experiment on Staphylococcus aureus [6] it was 4 µg/mL (≈ 7.16 µM); in the experiment with Pseudomonas aeruginosa [7], 4 µg/mL (≈ 7.16 µM); with Acinetobacter baumannii it was 4 µg/mL (≈ 7.16 µM); in the experiment on Staphylococcus aureus [8], 4 µg/mL (≈ 7.16 µM); in the experiment with Klebsiella pneumoniae [9], 1 µg/mL (≈ 1.79 µM). In addition, the MIC with Staphylococcus aureus [10] and with Staphylococcus aureus [11] was 1 µg/mL (≈ 1.79 µM) each time.

For the compound `Cc1ccc(Oc2ccnc(Nc3ccc4c(=O)c(C(=O)O)cn(C5CC5)c4c3)n2)cc1`, the MIC in the experiment on Staphylococcus aureus [12], in the experiment with Staphylococcus aureus [13], in the experiment on Staphylococcus aureus [14], in the experiment with Staphylococcus aureus [15], in the experiment with Staphylococcus aureus [16] and in the experiment with Staphylococcus aureus [17] was no more than 0.17 µg/mL in each case. Also, the MIC in the experiment with Staphylococcus aureus [18], in the experiment on Staphylococcus aureus [19], in the experiment on Staphylococcus aureus [20], in the experiment with Staphylococcus aureus [21], in the experiment with Staphylococcus aureus [22] and in the experiment with Staphylococcus aureus [23] was no more than 0.17 µg/mL throughout.

As to `O=C(O)c1cn(C2CC2)c2cc(N3CCN(Cn4nc(CN5CCN(c6ccc(F)cc6)CC5)n(-c5ccccc5)c4=O)CC3)c(F)cc2c1=O`, the MIC in the experiment on Staphylococcus aureus [24], in the experiment with Escherichia coli [25] and in the experiment on Klebsiella pneumoniae [26] was less than 0.24 µg/mL each time.

On to `Cc1cccc2cc(/C=C3\NC(=S)NC3=O)c(=O)[nH]c12`, for which the MIC in the experiment on Pseudomonas aeruginosa [27], with Escherichia coli [28], with Klebsiella pneumoniae [29] and in the experiment with Staphylococcus aureus [30] was 0.24 µg/mL (≈ 0.841 µM) throughout.

Turning to `CCOC(=O)C(C(=O)OCC)C(=O)c1cn(C2CC2)c2cc(N3CCN(/N=N/c4nc(OC)cc(OC)n4)CC3)c(F)cc2c1=O`, the MIC (with Staphylococcus aureus [31]; in the experiment on Bacillus subtilis; in the experiment on Enterobacter cloacae; with Escherichia coli [32]; in experiment [33]; with Klebsiella pneumoniae [34]) was 0.015 µg/mL (≈ 0.0235 µM) throughout.

For the origin of these results see ChEMBL document CHEMBL5360532, “Current scenario of quinolone hybrids with potential antibacterial activity against ESKAPE pathogens” (Eur J Med Chem, 2023).
